{
  "source": "patent US20130004590A1",
  "about": "“ZINC OXIDE/ACID CONTAINING COMPOSITIONS AND METHODS FOR TREATING AND/OR PREVENTING ENZYMATIC IRRITATION” (priority 2011, published 2013)",
  "key": {"[1]": {"test_system": "trypsin", "experiment": "EnzChek protease assay: trypsin inhibition by mixtures of talc with divalent cation salts", "type": "biochemical", "details": "for Hypothetically calculated additive value of salt and Talc, trypsin inhibition activities (%): Table 3, salt alone plus talc alone (8.55%)", "procedure": "The objective of the following experiment was to determine whether and to what extent adding a divalent cation to talc inhibited trypsin activity in an in vitro assay. The inhibition of trypsin-induced cleavage of a fluorescent casein peptide was measured using the EnzChek™ protease assay kit, following manufacturer's instructions (EnzChek™ Protease Assay Kits Product Information, Revised; Molecular Probes, Eugene Oreg.). […] Trypsin working solution (Sigma, St. Louis, Mo., unit/mL) was prepared in digestion buffer provided in the assay kit. Stock solution of BODIPY FL casein (trypsin substrate, mg/mL) was prepared by adding 0.2 mL to the substrate vials (provided in kit), and the final substrate working solution (10 microgram/mL) was prepared by dilution in digestion buffer (pH 7.8). Following incubation of the trypsin, with or without the test materials, with the BODIPY fluorescent casein substrate, at room temperature for one hour, fluorescence was measured (excitation 485 nm/emission 530 nm) using a SpectraMax microtiter plate reader (Molecular Devices Corporation, Sunnyvale, Calif.) and Softmax Pro software (Molecular Devices Corporation). Each experiment was performed in three replicates."}, "[2]": {"procedure": "The objective of the following experiment was to determine whether and to what extent adding an acid to a formulation containing zinc oxide had on inhibition of trypsin activity in an in vitro assay. The inhibition of trypsin-induced cleavage of a fluorescent casein peptide was measured using the EnzChek™ protease assay kit, following manufacturer's instructions (EnzChek™ Protease Assay Kits Product Information, Revised; Molecular Probes, Eugene Oreg.). Briefly, mixtures of zinc oxide and acid at different concentrations were prepared in 1×PBS (pH 7.4) and their pH was recorded as listed in the Tables 5-8. Trypsin working solution (Sigma, St. Louis, Mo., unit/mL) was prepared in digestion buffer provided in the assay kit. Stock solution of BODIPY FL casein (trypsin substrate, mg/mL) was prepared by adding 0.2 mL to the substrate vials (provided in kit), and the final substrate working solution (10 microgram/mL) was prepared by dilution in digestion buffer (pH 7.8). Following incubation of the trypsin, with or without the test materials (50 μl), with the BODIPY fluorescent casein substrate, at room temperature for one hour, fluorescence was measured (excitation 485 nm/emission 530 nm) using a SpectraMax microtiter plate reader (Molecular Devices Corporation, Sunnyvale, Calif.) and Softmax Pro software (Molecular Devices Corporation). Each experiment was performed in three replicates."}, "[3]": {"test_system": "trypsin", "experiment": "EnzChek protease assay: trypsin inhibition by zinc oxide/acid mixtures and formulations", "type": "biochemical", "details": "text b137, on Table 5", "procedure": "Each experiment was performed in three replicates.\nFor preparations, samples were diluted in 1×PBS at 1:10 ratio and subjected to centrifugation at 13,200 rpm for 1 min using Eppendorf Centrifuge (Model 5415D, Eppendorf AG, Hamburg, Germany) to remove the solid formulation ingredients. The supernatants (50 μl) were used for trypsin inhibitory activity analyses as described above. For preparations, samples were diluted in 10, or 20 or 40% ethanol and subjected to centrifugation at 13,200 rpm for 1 min using Eppendorf Centrifuge (Model 5415D, Eppendorf AG, Hamburg, Germany) to remove the solid formulation ingredients. The supernatants (50 μl) were used for trypsin inhibition assay. Possible effects of ethanol solution (10, 20 or 40% ethanol) on trypsin inhibition activity were tested in the same study and found no significant impact.\nFor the above study, the results are an average of three independent experiments, wherein the samples, which were diluted at 1:10 ratio in 1×PBS solutions containing 10%, 20% or 40% ethanol, were tested in triplicates. The results are from an average of all conditions at the same dilution.\nFor the currently available product (i.e., Baby Paste 5.0, Mendelson Pharmaceuticals LLC, Mountainside, N.J.), the results are an average of a single study: sample diluted at 1:10 ratio, in 1×PBS solutions containing 10%, 20% or 40% ethanol, was tested in triplicate. […]"}},
  "note": "Read-outs that look alike come from different tables or passages of the source.",
  "data": [
    {"molecule": "CC(=O)[O-].CC(=O)[O-].O.O.O.O.[Mg+2]", "note": "[Magnesium acetate tetrahydrate]", "values": [
      {"measurement": "Hypothetically calculated additive value of salt and Talc, trypsin inhibition activities (%)", "setting": "[1]", "value": 9.38, "unit": "%"}
    ]},
    {"molecule": "CC(=O)O", "note": "[acetic acid]", "values": [
      {"measurement": "pH", "setting": "[2]; No ZnO, 0.01% acetic acid in 1x PBS", "value": 6.84},
      {"measurement": "pH", "setting": "[2]; No ZnO, 0.05% acetic acid in 1x PBS", "value": 4.75}
    ]},
    {"molecule": "[O]=[Zn]", "note": "[ZnO, zinc oxide]", "values": [
      {"measurement": "pH", "setting": "[2]; 0.1% ZnO, 0.01% acetic acid in 1x PBS", "value": 7.28},
      {"measurement": "pH", "setting": "[2]; 0.1% ZnO, 0.05% acetic acid in 1x PBS", "value": 6.03},
      {"measurement": "pH", "setting": "[2]; 0.1% ZnO, No acetic acid in 1x PBS", "value": 7.61},
      {"measurement": "pH", "setting": "[2]; 1% ZnO, 0.01% acetic acid in 1x PBS", "value": 7.85},
      {"measurement": "pH", "setting": "[2]; 1% ZnO, 0.05% acetic acid in 1x PBS", "value": 6.08},
      {"measurement": "pH", "setting": "[2]; 1% ZnO, No acetic acid in 1x PBS", "value": 8.07},
      {"measurement": "protease activity of zinc oxide, in words", "setting": "[3]", "value": "minimal protease activity"}
    ]},
    {"molecule": "CC(=O)[O-].CC(=O)[O-].[Zn+2]", "note": "[Zinc acetate dihydrate]", "values": [
      {"measurement": "Hypothetically calculated additive value of salt and Talc, trypsin inhibition activities (%)", "setting": "[1]", "value": 71.39, "unit": "%"}
    ]},
    {"molecule": "O.O.O.O.[Cl][Fe][Cl]", "note": "[Iron (II) chloride tetrahydrate]", "values": [
      {"measurement": "Hypothetically calculated additive value of salt and Talc, trypsin inhibition activities (%)", "setting": "[1]", "value": 73.62, "unit": "%"}
    ]},
    {"molecule": "[Cl-].[Cl-].[Zn+2]", "note": "[Zinc chloride]", "values": [
      {"measurement": "Hypothetically calculated additive value of salt and Talc, trypsin inhibition activities (%)", "setting": "[1]", "value": 89.62, "unit": "%"}
    ]},
    {"molecule": "CC(=O)[O-].CC(=O)[O-].O.[Ca+2]", "note": "[Calcium acetate monohydrate]", "values": [
      {"measurement": "Hypothetically calculated additive value of salt and Talc, trypsin inhibition activities (%)", "setting": "[1]", "value": 23.86, "unit": "%"}
    ]},
    {"molecule": "[Cl-].[Cl-].[Mg+2]", "note": "[Magnesium chloride]", "values": [
      {"measurement": "trypsin inhibitory activity, alone, in words", "setting": "[1]", "value": "moderate to low levels"},
      {"measurement": "Hypothetically calculated additive value of salt and Talc, trypsin inhibition activities (%)", "setting": "[1]", "value": 13.30, "unit": "%"}
    ]},
    {"molecule": "[Ca+2].[Cl-].[Cl-]", "note": "[Calcium chloride]", "values": [
      {"measurement": "Hypothetically calculated additive value of salt and Talc, trypsin inhibition activities (%)", "setting": "[1]", "value": 26.50, "unit": "%"}
    ]}
  ]
}
